{"source": "patent US20140378525A1", "about": "“MATERIALS AND METHODS FOR TREATING PTEN MUTATED OR DEFICIENT CANCER” (priority 2011, published 2014)", "test_in_all_cases": "Drug sensitivity of breast cancer cell line to lapatinib", "assay_type_in_all_cases": "cell-based, human", "key": {"MDAMB453": {"test_system": "MDAMB453", "details": "MDAMB453, ERBB2 amplified", "from_the_text": "(§1) To complement this functional viability profiling, we also characterised the breast tumor panel using transcript microarrays, array-based comparative genomic hybridisation (aCGH), drug sensitivity for a small number of targeted agents, as well as gene mutation data."}, "SKBR3": {"test_system": "SKBR3", "details": "SKBR3, ERBB2 amplified", "from_the_text": "as §1"}, "HCC202": {"test_system": "HCC202", "details": "HCC202, ERBB2 amplified", "from_the_text": "as §1"}, "BT474": {"test_system": "BT474", "details": "BT474, ERBB2 amplified", "from_the_text": "as §1"}, "VP229": {"test_system": "VP229", "details": "VP229, ERBB2 amplified", "from_the_text": "as §1"}, "JIMT1": {"test_system": "JIMT1", "details": "JIMT1, ERBB2 amplified", "from_the_text": "as §1"}}}
{"smiles": "CS(=O)(=O)CCNCc1ccc(-c2ccc3ncnc(Nc4ccc(OCc5cccc(F)c5)c(Cl)c4)c3c2)o1", "note": "[lapatinib]", "values": [{"measurement": "sensitivity to lapatinib treatment", "setting": "MDAMB453", "value": "resistant"}, {"measurement": "sensitivity to lapatinib treatment", "setting": "SKBR3", "value": "sensitive"}, {"measurement": "sensitivity to lapatinib treatment", "setting": "HCC202", "value": "sensitive"}, {"measurement": "sensitivity to lapatinib treatment", "setting": "BT474", "value": "sensitive"}, {"measurement": "sensitivity to lapatinib treatment", "setting": "VP229", "value": "resistant"}, {"measurement": "sensitivity to lapatinib treatment", "setting": "JIMT1", "value": "resistant"}]}
